Assays:
[1] = Inhibition of Smt-tagged S-nitrosoglutathione reductase expressed in Escherichia coli using […] as substrate for 3 mins by spectrophotometric analysis
[2] = Oral bioavailability in BALB/c mouse at 10 mg/kg by LC-MS/MS analysis; assay type: ADME, organism-based; details: in vivo
[3] = Plasma clearance in BALB/c mouse at 2 mg/kg, iv by LC-MS/MS analysis; assay type: ADME, organism-based; set-up: dose 2 mg/kg, route intravenous
A549 = experiment: Cytotoxicity against human A549 cells after 48 hrs by MTS assay; assay type: cell-based; details: A549, 48 h

Row | Structure (SMILES) | IC50 ([1]; read-out: IC50) [nM] | other results
1 | Cc1nccn1-c1cc(-c2ccc(CCC(=O)O)n2-c2ccc(O)cc2)cs1 | 45 | –
2 | O=C(O)CCc1ccc(-c2ccc(-n3ccnc3)cc2)n1-c1ccc(O)cc1 | 39 | bioavailability [2]: 6.8%; clearance [3]: 37.1 mL/min/kg
3 | COCC(=O)Nc1ccc(-n2c(CCC(=O)O)ccc2-c2ccc(-n3ccnc3)cc2)c(C)c1 | 96 | –
4 | Cc1cc(NS(C)(=O)=O)ccc1-n1c(CCC(=O)O)ccc1-c1cc(-n2ccnc2C)cs1 | 76 | IC50 (A549): > 150000 nM
5 | Cc1nccn1-c1ccc(-c2ccc(CCC(=O)O)n2-c2ccc(S(N)(=O)=O)cc2)s1 | 23 | IC50 (A549): > 150000 nM
6 | Cc1cc(CN)ccc1-n1c(CCC(=O)O)ccc1-c1ccc(-n2ccnc2)cc1 | 1590 | –
7 | Cc1nccn1-c1csc(-c2ccc(CCC(=O)O)n2-c2ccc(NS(C)(=O)=O)cc2)c1 | 360 | –
8 | CCC(=O)Nc1ccc(-n2c(CCC(=O)O)ccc2-c2ccc(-n3ccnc3)cc2)c(C)c1 | 88 | –
9 | Cc1cc(C(=O)O)ccc1-n1c(CCC(=O)O)ccc1-c1ccc(-n2ccnc2)cc1 | 110 | –
10 | Cc1cc(NS(C)(=O)=O)ccc1-n1c(CCC(=O)O)ccc1-c1ccc(-n2ccnc2C)cc1 | 180 | –
11 | CC(=O)Nc1ccc(-n2c(CCC(=O)O)ccc2-c2cc(-n3ccnc3C)cs2)cc1 | 140 | –
12 | CCOC(=O)CCc1ccc(-c2ccc(OC)cc2)n1-c1ccc(Br)cc1 | 3250 | –
13 | Cc1nccn1-c1ccc(-c2ccc(CCC(=O)O)n2-c2ccc(O)cc2)cc1 | 54 | –
14 | Cc1cc(S(N)(=O)=O)ccc1-n1c(CCC(=O)O)ccc1-c1ccc(-n2ccnc2C)s1 | 22 | IC50 (A549): > 150000 nM
15 | Cc1cc(N)ccc1-n1c(CCC(=O)O)ccc1-c1ccc(-n2ccnc2)cc1 | 1410 | –
16 | Cc1nccn1-c1csc(-c2ccc(CCC(=O)O)n2-c2ccc(O)cc2)c1 | 96 | –
17 | CCOC(=O)CCc1ccc(-c2ccc(OC)cc2)n1-c1ccc(O)cc1 | 240 | –
18 | Cc1cc(O)ccc1-n1c(CCC(=O)O)ccc1-c1ccc(-n2ccnc2)cc1 | 180 | –
19 | CC(=O)Nc1ccc(-n2c(CCC(=O)O)ccc2-c2ccc(-n3ccnc3C)cc2)c(C)c1 | 450 | –
20 | CC(=O)Nc1ccc(-n2c(CCC(=O)O)ccc2-c2ccc(-n3ccnc3C)cc2)cc1 | 3890 | –
21 | Cc1nccn1-c1ccc(-c2ccc(CCC(=O)O)n2-c2ccc(O)cc2)s1 | 36 | IC50 (A549): > 150000 nM; bioavailability [2]: 3.9%; clearance [3]: 23.9 mL/min/kg
22 | O=C(O)CCc1ccc(-c2ccc(-n3ccnc3)s2)n1-c1ccc(O)cc1 | 32 | –
23 | CC(=O)Nc1ccc(-n2c(CCC(=O)O)ccc2-c2ccc(-n3ccnc3)cc2)c(C)c1 | 56 | –
24 | CCOC(=O)CCc1ccc(-c2ccc(OC)cc2)n1-c1ccc(OC)cc1 | 1020 | –
25 | CCOC(=O)CCc1ccc(-c2ccc(OC)cc2)n1-c1ccc(CC(N)=O)cc1 | – | IC50 [1]: Not Active
26 | Cc1nccn1-c1ccc(-c2ccc(CCC(=O)O)n2-c2ccc(NS(C)(=O)=O)cc2)cc1 | 1790 | –

Second part, led by results:

Row | IC50 ([1]; read-out: IC50) [nM] | Structure (SMILES) | other results
27 | 710 | CCOC(=O)CCc1ccc(-c2ccc(OC)cc2)n1-c1ccc(NS(N)(=O)=O)cc1C | –
28 | 330 | CCOC(=O)CCc1ccc(-c2ccc(OC)cc2)n1-c1ccc(S(N)(=O)=O)cc1C | –
29 | 61 | CCOC(=O)CCc1ccc(-c2ccc(Br)cc2)n1-c1ccc(C(=O)Nc2ccncc2)cc1C | –
30 | 3740 | CCOC(=O)CCc1ccc(-c2ccc(OC)cc2)n1-c1ccc(C(=O)Nc2cncnc2)cc1C | –
31 | 640 | CCOC(=O)CCc1ccc(-c2ccc(OC)cc2)n1-c1ccc(C(=O)Nc2ccnnc2)cc1C | –
32 | 960 | CCOC(=O)CCc1ccc(-c2ccc(OC)cc2)n1-c1ccc(C(C)=O)cc1 | –
33 | 4560 | CCOC(=O)CCc1ccc(-c2ccc(OC)cc2)n1-c1ccc(C(=O)NC)cc1 | –
34 | 1310 | CCOC(=O)CCc1ccc(-c2ccc(OC)cc2)n1-c1ccc(C(=O)N(C)C)cc1C | –
35 | 8840 | CCOC(=O)CCc1ccc(-c2ccc(OC)cc2)n1-c1ccc(C)cc1C | –
36 | 4800 | CCOC(=O)CCc1ccc(-c2ccc(OC)cc2)n1-c1ccc(NC(N)=O)cc1 | –
37 | 730 | CCOC(=O)CCc1ccc(-c2ccc(OC)cc2)n1-c1ccc(C(=O)NCCOC)cc1C | –
38 | 460 | CCOC(=O)CCc1ccc(-c2ccc(OC)cc2)n1-c1ccc(C(N)=O)cc1 | –
39 | 3270 | CCOC(=O)CCc1ccc(-c2ccc(OC)cc2)n1-c1ccc(NC(C)=O)cc1 | –
40 | 1550 | CCOC(=O)CCc1ccc(-c2ccc(OC)cc2)n1-c1ccc(O)cc1C | –
41 | 660 | CCOC(=O)CCc1ccc(-c2ccc(OC)cc2)n1-c1ccc(C(=O)NCCO)cc1C | –
42 | 2410 | CCOC(=O)CCc1ccc(-c2ccc(OC)cc2)n1-c1ccc(C(=O)NC)cc1C | –
43 | 440 | CCOC(=O)CCc1ccc(-c2ccc(OC)cc2)n1-c1ccc(C(=O)Nc2cccnc2)cc1C | –
44 | 170 | CCOC(=O)CCc1ccc(-c2ccc(OC)cc2)n1-c1ccc(C(=O)Nc2ccncc2)cc1C | –
45 | 1800 | CCOC(=O)CCc1ccc(-c2ccc(OC)cc2)n1-c1ccc(OC)cc1C | –
